What was measured:
HepG2 cells = experiment: Western blot of apoptosis markers; format: cell-based, human
Description: To evaluate the protein levels of apoptosis-associated markers, we performed Western blot analysis on cell extracts as previously reported ([Hao et al., 2018]). Briefly, equal amounts of protein were subjected to SDS-PAGE and then transferred onto a polyvinylidene fluoride (PVDF) membrane. The membrane was incubated in a blocking solution consisting of 5% non-fat dry milk in Tris-buffered saline with Tween-20 (TBS-T) for 3 h at room temperature. Subsequently, the membrane was probed with primary antibodies specific to cleaved PARP and cleaved caspase-3 overnight at 4°C. After washing, the membrane was incubated with horseradish peroxidase-conjugated secondary antibodies for 1 h at room temperature. Immunoreactive bands were visualized using a chemiluminescent substrate (ECL, Pierce Technology). The relative expression levels of cleaved PARP and cleaved caspase-3 were quantified.

63 distinct kinases = experiment: SelectScreen kinase selectivity assay, whole panel; format: biochemical; settings: read-out: IC50 values for each of the 63 kinases
Description: The kinase selectivity analysis of PKHD-5 was performed using the SelectScreen kinase analysis service provided by Thermo Fisher Scientific. The experiment initially involved the preparation of a series of inhibitor solutions at varying concentrations, which were then reacted with various kinase targets under standardized conditions to calculate the percentage inhibition for each test solution. Ultimately, the IC50 values were calculated based on the concentration-inhibition curves by fitting a four-parameter logistic curve, thereby assessing the potency and selectivity of the inhibitors. The analysis results are detailed in Supplementary Table S1.

[1] = biological target: T1, Human recombinant PKMYT1 enzyme (Homo sapiens, UniProt Q99640); experiment: ADP-GLO enzyme inhibition assay; format: biochemical
T1 construct: purchased Abcam
T1 sequence (Q99640 1-499): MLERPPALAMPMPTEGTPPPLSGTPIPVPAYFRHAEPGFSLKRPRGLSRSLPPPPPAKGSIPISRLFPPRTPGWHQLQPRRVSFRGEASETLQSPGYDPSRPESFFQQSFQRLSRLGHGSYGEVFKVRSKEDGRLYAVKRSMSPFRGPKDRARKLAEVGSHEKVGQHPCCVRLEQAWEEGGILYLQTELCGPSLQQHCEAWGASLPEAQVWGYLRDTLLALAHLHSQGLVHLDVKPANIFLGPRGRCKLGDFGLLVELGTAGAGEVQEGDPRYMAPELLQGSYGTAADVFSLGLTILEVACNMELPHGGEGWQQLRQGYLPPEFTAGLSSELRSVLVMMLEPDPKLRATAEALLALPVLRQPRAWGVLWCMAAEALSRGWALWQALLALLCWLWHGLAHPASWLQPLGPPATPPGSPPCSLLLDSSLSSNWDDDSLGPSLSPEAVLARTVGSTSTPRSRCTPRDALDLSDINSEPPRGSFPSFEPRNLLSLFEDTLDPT
Description: The ADP-GLO™ kinase assay kit, purchased from Promega Corporation (Madison, WI, United States), included the ADP-GLO reagent, the kinase assay reagent, and ultra-pure ATP and ADP. PKMYT1 enzyme was dissolved in 5 μL of freshly prepared enzyme assay buffer containing 70 mM Hepes, 3 mM MgCl2, 3 mM MnCl2, 50 μg/mL PEG20000, 3 μM sodium orthovanadate, 1.2 mM dithiothreitol, and then injected into 384-well plates. […] The enzymatic reaction was initiated by adding 5 μL of ATP, followed by a 60-min incubation at 30°C. Subsequently, 15 μL of ADP-GLO reagent was added, and the incubation was continued for an additional 40 min at room temperature. Then, 30 μL of kinase detection reagent was introduced, and the samples were incubated for a final 30 min. Luminescence measurements were taken using an Envision plate reader (PerkinElmer). The IC50 value of each tested compound was calculated by GraphPad Prism software.

[2] = system: normal human liver cell line L02; experiment: MTT assay; format: cell-based; settings: normal liver cell line L02, 48 h
Description: (§1) Cells at a density of 4×10^3 cells/well were inoculated into 96-well plates for overnight culture at 37°C. […] Then, 100 μL of a 0.5 mg/mL MTT solution was pipetted into each well, and the incubation was prolonged for 4 h, resulting in the formation of a purple precipitate. Afterward, 200 μL of DMSO was added to each well, and the plate was vortexed for 10 min. The absorbance at 570 nm was determined with a Synergy 4 microplate reader (BioTek, United States). Each experiment was performed three times under the same conditions.

HepG2/MDR = experiment: MTT assay; format: cell-based; settings: Homo sapiens, multidrug-resistant HepG2/MDR, 48 h, read-out: IC50 (μM) ± SD HepG2/MDR
Description: as §1

SNU449 = experiment: MTT assay; format: cell-based; settings: Homo sapiens, SNU-449, SNU449, 48 h, read-out: IC50 (μM) ± SD SNU449
Description: as §1

Hep3B = experiment: MTT assay; format: cell-based; settings: Homo sapiens, 48 h, read-out: IC50 (μM) ± SD Hep3B
Description: as §1

HepG2 = experiment: MTT assay; format: cell-based; settings: Homo sapiens, HepG2, 48 h, read-out: IC50 (μM) ± SD HepG2
Description: as §1

Huh7 = experiment: MTT assay; format: cell-based; settings: Homo sapiens, Huh-7, Huh7, 48 h, read-out: IC50 (μM) ± SD Huh7
Description: as §1

HCC cell lines = experiment: MTT assay, all HCC cell lines; format: cell-based; settings: Homo sapiens, range over HepG2, Hep3B, Huh7, SNU449, HepG2/MDR, 48 h, read-out: IC50 values against all HCC cell lines
Description: The MTT assay was conducted to evaluate the inhibitory impact of PKHD-5 on HCC cells, HepG2/ADR cells, and normal liver cells ([Ding et al., 2020]). Cells at a density of 4×10^3 cells/well were inoculated into 96-well plates for overnight culture at 37°C. The cells were treated with varying concentrations of the test compounds and incubated for 48 h. Then, 100 μL of a 0.5 mg/mL MTT solution was pipetted into each well, and the incubation was prolonged for 4 h, resulting in the formation of a purple precipitate. Afterward, 200 μL of DMSO was added to each well, and the plate was vortexed for 10 min. The absorbance at 570 nm was determined with a Synergy 4 microplate reader (BioTek, United States). Each experiment was performed three times under the same conditions.

[3] = biological target: T2, Human recombinant HDAC2 enzyme (Homo sapiens, UniProt Q92769); experiment: HDAC2 fluorescence enzyme inhibition assay (Boc-Lys(acetyl)-AMC); format: biochemical
T2 construct: purchased Abcam
T2 sequence (Q92769 whole entry): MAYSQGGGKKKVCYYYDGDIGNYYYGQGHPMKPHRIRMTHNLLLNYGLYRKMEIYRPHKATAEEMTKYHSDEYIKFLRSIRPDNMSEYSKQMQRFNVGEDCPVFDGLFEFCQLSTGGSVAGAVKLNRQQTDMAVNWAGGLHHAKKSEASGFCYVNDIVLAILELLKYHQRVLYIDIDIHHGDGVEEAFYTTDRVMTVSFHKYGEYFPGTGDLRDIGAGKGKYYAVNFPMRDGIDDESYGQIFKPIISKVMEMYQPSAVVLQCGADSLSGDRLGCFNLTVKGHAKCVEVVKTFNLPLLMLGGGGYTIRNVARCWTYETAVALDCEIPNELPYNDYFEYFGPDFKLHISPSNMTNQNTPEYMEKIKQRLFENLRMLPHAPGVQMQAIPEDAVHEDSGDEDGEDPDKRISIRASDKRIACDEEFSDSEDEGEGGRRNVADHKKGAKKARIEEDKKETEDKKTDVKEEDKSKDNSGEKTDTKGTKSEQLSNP
Description: Firstly, a 96-well plate was loaded with a blend comprising 10 μL of HDAC2 enzyme solution and 50 μL of the test compounds at assorted concentrations, followed by incubation at a temperature of 37°C for a duration of 5 min. Subsequently, 10 μL of the fluorescent substrate Boc-Lys (acetyl)-AMC was added and continued for 30 min. Finally, 100 μL of developer containing trypsin and TSA was injected into each well and incubated for 20 min.

In the case of Cc1ccc(O)c(C)c1-n1c(N)c(C(N)=O)c2cc(CCCCCC(=O)NO)c(C)nc21 [PKHD-5], the “levels of cleaved PARP” value (HepG2 cells) is reported as “increased levels”, the “levels of cleaved caspase-3” value (HepG2 cells) is reported as “increased levels” and the IC50 (63 distinct kinases) is reported as greater than 50000 nM. For the same compound, the IC50 ([1]; ADP-GLO method) was 3.15 ± 0.21 nM, the “fold inhibition of PKMYT1 compared with the control compound 39” value ([1]; ratio of IC50 values versus compound 39) was 4.91 fold and the IC50 [2] was greater than 100000 nM. The IC50 (HepG2/MDR) was 0.92 ± 0.05 µM, the IC50 (SNU449) was 0.59 ± 0.06 µM and the IC50 (Hep3B) was 0.38 ± 0.05 µM. For the same compound, the IC50 (HepG2) was 0.19 ± 0.03 µM, the IC50 (Huh7) was 0.47 ± 0.04 µM and the IC50 (HCC cell lines) was 190 to 920 nM. For the same compound, the IC50 ([3]; fluorescence signal-based method) was 2.28 ± 0.13 nM and the “fold inhibition of HDAC2 compared with SAHA” value ([3]; ratio of IC50 values versus SAHA) was 4.42 fold.

Reference: publication PMC11604427 (Frontiers in Pharmacology, 2024)
